From patent US10653710B2, “Combination therapy for treating malignancies” (Agios Pharmaceuticals, Inc., priority 2015, dated 2020)
Values after ≈ are worked out from the molar mass of the structure shown. Read-outs that look alike come from different tables or passages of the source.

Tests used:
TF1-IDH1^R132H cells [1] = experiment: HBG and KLF1 RNA by RT-qPCR in EPO differentiation assay; type: cell-based; settings: concurrent schedule; for increase in HBG gene expression: COMPOUND 2 0.2 μM, AZA 1.0 μM, single agents or combined
Procedure: EPO differentiation assay in TF1-IDH1^R132H cells. […] Cells were treated with vehicle, AZA alone, COMPOUND 2 alone, or the combination of AZA+COMPOUND 2. In the sequential schedule, cells were pre-treated with AZA for three days before addition of COMPOUND 2. In the concurrent schedule, cells were co-treated with AZA and COMPOUND 2 throughout the assay. Endpoints assessed assays were: cell pellet color evaluation (hemoglobinization assay); HBG and KLF1 RNA by RT-qPCR; CD235a-positive cell populations by flow cytometry (differentiation markers); and Growth and apoptosis by IncuCyte Zoom real-time imaging.
Cells were treated with vehicle, AZA alone, COMPOUND 2 alone, or the combination of AZA+COMPOUND 2. In the sequential schedule, cells were pre-treated with AZA for three days before addition of COMPOUND 2. In the concurrent schedule, cells were co-treated with AZA and COMPOUND 2 throughout the assay.

[2] = cited from earlier work
TF1-IDH1^R132H cells [3] = experiment: EPO differentiation assay, cell pellet color evaluation (hemoglobinization assay); type: cell-based; settings: concurrent schedule; COMPOUND 2 0.2 and 1.0 μM; AZA up to 1 uM
From the text: (§1) EPO differentiation assay in TF1-IDH1^R132H cells. […] Endpoints assessed assays were: cell pellet color evaluation (hemoglobinization assay); HBG and KLF1 RNA by RT-qPCR; CD235a-positive cell populations by flow cytometry (differentiation markers); and Growth and apoptosis by IncuCyte Zoom real-time imaging.

TF-1-IDH1^R132H cells = experiment: growth and apoptosis by IncuCyte Zoom real-time imaging; type: cell-based; settings: AZA 1 μM; for cell growth compared to the DMSO control: COMPOUND 2 0.1, 0.3 or 1.0 μM; for induction of apoptosis: late time points (>60 hrs), combination with 0.1 and 0.3 μM COMPOUND 2
Procedure: as §1
In order to track cell growth and death in real-time, a real-time analysis was performed using IncuCyte Zoom (FIG. 4).

TF1-IDH1^R132H cells [4] = experiment: CD235a-positive cell populations by flow cytometry in EPO differentiation assay; type: cell-based; settings: concurrent schedule
From the text: as §1

[5] = solubility in fasted state simulated intestinal fluid (FASSIF); type: physicochemical; settings: pH 6.1, fassif, thermodynamic from solid, pH of 6.1 at 4 hours
Procedure: In comparison, amorphous spray-dried dispersions have a solubility of about 0.05 mg/mL to about 0.50 mg/mL in FASSIF at 3 hours.

In the case of `Nc1ncn([C@@H]2O[C@H](CO)[C@@H](O)[C@H]2O)c(=O)n1` [AZA, 4-amino-1-β-D-ribofuranozyl-s-triazin-2(1H)-one], the “increase in HBG gene expression” value (TF1-IDH1^R132H cells [1]) is given as 1 fold, the solubility ([2]; in acetone, ethanol and methyl ketone) is given as “insoluble” and the solubility ([2]; in dimethylsulfoxide (DMSO)) is given as “soluble”. For the same compound, the solubility ([2]; in ethanol/water (50/50), propylene glycol and polyethylene glycol) was “slightly soluble”, the solubility ([2]; in water, water-saturated octanol, 5% dextrose in water, N-methyl-2-pyrrolidone, normal saline and 5% Tween 80 in water) was “sparingly soluble” and the “hemoglobinization (red color of cell pellets)” value (TF1-IDH1^R132H cells [3]) was “little or no effect on cell pellet color”. For the same compound, the “cell growth compared to the DMSO control” value (TF-1-IDH1^R132H cells) was “slowed growth” and the induction of apoptosis (TF-1-IDH1^R132H cells) was “increased apoptosis above the DMSO control”.
In the case of `N#Cc1ccnc(N2C(=O)CC[C@H]2C(=O)N(c2cncc(F)c2)[C@H](C(=O)NC2CC(F)(F)C2)c2ccccc2Cl)c1` [COMPOUND 2, (S)-N-((S)-1-(2-chlorophenyl)-2-((3,3-difluorocyclobutyl)amino)-2-oxoethyl)-1-(4-cyanopyridin-2-yl)-N-(5-fluoropyridin-3-yl)-5-oxopyrrolidine-2-carboxamide], the “erythroid differentiation marker CD235a (Glycophorin A) expression” value (TF1-IDH1^R132H cells [4]) is reported as “increased erythroid differentiation marker CD235a”, the “RNA expression of differentiation marker KLF1” value (TF1-IDH1^R132H cells [1]) is reported as “Dose-dependent increases” and the “increase in HBG gene expression” value (TF1-IDH1^R132H cells [1]) is reported as 25 fold. For the same compound, the “RNA expression of differentiation marker HBG” value (TF1-IDH1^R132H cells [1]; combination with COMPOUND 2 0.2 μM) was “dose-dependent increases”, the “hemoglobinization (red color of cell pellets)” value (TF1-IDH1^R132H cells [3]) was “increased hemoglobin production in a dose-dependent manner” and the “cell growth compared to the DMSO control” value (TF-1-IDH1^R132H cells) was “slightly promoted cell growth”. For the same compound, the induction of apoptosis (TF-1-IDH1^R132H cells) was “no effect on induction of apoptosis”.
In the case of `Nc1ncn([C@H]2C[C@H](O)[C@@H](CO)O2)c(=O)n1` [Decitabine, 4-amino-1-(2-deoxy-β-D-erythro-pentofuranosyl)-1,3,5-triazin-2(1H)one], the solubility ([2]; in dimethylsulfoxide (DMSO)) is listed as “soluble”, the solubility ([2]; in ethanol/water (50/50), methanol/water (50/50) and methanol) is listed as “slightly soluble” and the solubility ([2]; in water) is listed as “sparingly soluble”.
In the case of `N#Cc1ccnc(N2C(=O)CC[C@H]2C(=O)N(c2cncc(F)c2)[C@H](C(=O)NC2CC(F)(F)C2)c2ccccc2Cl)c1` [Form 2, (S)-N-((S)-1-(2-chlorophenyl)-2-((3,3-difluorocyclobutyl)amino)-2-oxoethyl)-1-(4-cyanopyridin-2-yl)-N-(5-fluoropyridin-3-yl)-5-oxopyrrolidine-2-carboxamide], the solubility at 4 h [5] is reported as about 0.018 mg/mL (≈ 30.9 µM).
